target: T1, human polymorphonuclear leukocyte elastase (Homo sapiens, UniProt P08246); experiment: Inhibition of human polymorphonuclear leukocyte (granulocyte) elastase via hydrolysis of Boc-AAPAN or Boc-AAPVN; assay type: biochemical; conditions: Table I; 2 min after time zero; crude PMN extract, pH 7.5
T1 construct: Crude extract of human polymorphonuclear leukocytes (PMN) containing elastase activity; endogenous in cells; host or cells: human polymorphonuclear leukocytes (crude extract)
T1 sequence (P08246 30-247 limits assumed): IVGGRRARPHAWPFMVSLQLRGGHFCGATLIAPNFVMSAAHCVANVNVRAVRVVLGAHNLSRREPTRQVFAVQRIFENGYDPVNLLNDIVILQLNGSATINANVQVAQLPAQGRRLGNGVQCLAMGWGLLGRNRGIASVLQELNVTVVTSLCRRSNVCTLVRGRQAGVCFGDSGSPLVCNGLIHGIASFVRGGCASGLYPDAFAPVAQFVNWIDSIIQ

Row | Structure (SMILES) | ID50, effective dosage for 50% inhibition of the enzyme activity two minutes after time zero [µg/mL]
1 | CCC1C(=O)N(C(C)=O)C1OC(C)=O (stereo not shown) [Table I: H; C2 H5; OCOCH3; COCH3] | 100
2 | CCC1C(=O)NC1OC(C)=O (stereo not shown) [Table I: H; C2 H5; OCOCH3; H] | 15000
3 | COC1C(=O)N(C(C)=O)C1C(=O)OCc1ccccc1 (stereo not shown) [Table I: H; CH3 O; COOCH2 C6 H5; COCH3] | 2000
4 | CC(=O)OC1CC(=O)N1C(C)=O (stereo not shown) [Table I: H; H; OCOCH3; COCH3] | 3000
5 | CC(=O)N1C(=O)CC1[S+](C)[O-] (stereo not shown) [Table I: H; H; SOCH3; COCH3, 1-acetyl-4-methylsulfinylazetidine-2-one] | 10000
6 | CCCC1C(=O)N(C(C)=O)C1OC(C)=O (stereo not shown) [Table I: H; n-propyl; OCOCH3; COCH3, 1-acetyl-4-acetoxy-3-n-propylazetidin-2-one] | 10

same assay, conditions: Table I; read-out: Ki, concentration of the inhibitor giving 50% of the control enzyme activity

Row | Structure (SMILES) | Ki [nM]
7 | CC[C@H]1C(=O)N(S(=O)(=O)c2ccc(C)cc2)[C@H]1C(=O)N(C)CC(=O)O (relative stereo) | 22000
8 | CC[C@H]1C(=O)N(S(=O)(=O)c2ccc(C)cc2)[C@H]1C(=O)OCc1ccc(C(=O)O)cc1 (relative stereo) | 4200
9 | CC[C@H]1C(=O)N(C(=O)c2ccccc2)[C@H]1OC(C)=O (relative stereo) [Table I: H; C2 H5 (cis); OCOCH3; COPh] | 140
10 | CC[C@H]1C(=O)N(C(C)=O)[C@H]1OC(=O)c1ccccc1 (relative stereo) [Table I: H; C2 H5 (cis); OCOPh; COCH3] | 210
11 | CCO[C@@H]1[C@@H](CC)C(=O)N1C(C)=O (relative stereo) [Table I: H; C2 H5 (trans); OC2 H5; COCH3] | 11900
12 | CC[C@H]1C(=O)N(C(C)=O)[C@@H]1OC(=O)c1ccccc1 (relative stereo) [Table I: H; C2 H5 (trans); OCOPh; COCH3] | 190
13 | CC[C@H]1C(=O)N(C(C)=O)[C@@H]1Oc1ccccc1 (relative stereo) [Table I: H; C2 H5 (trans); OPh; COCH3] | 4300
14 | CCC1C(=O)N(C(=O)c2ccccc2)C1C(C)=O (stereo not drawn) [Table I: H; C2 H5 (trans); COCH3; COPh] | 340
15 | CCC1C(=O)N(C(C)=O)C1OC(C)=O (stereo not shown) [Table I: H; C2 H5; OCOCH3; COCH3] | 360

same assay, conditions: Table IV, (per mole per second)

Row | Structure (SMILES) | kobs/I, second order rate constant of inactivation of the enzyme [M⁻¹ s⁻¹]
16 | CCCC1(CCC)C(=O)N(C(=O)NC(C)c2ccccc2)C1Oc1ccc(C(=O)O)cc1 (single isomer, unassigned) [Table IV: C3 H7; C3 H7; O-(4-COOHPh); drawing 47 (higher Rf isomer)] | 4324
17 | CCCC1(CCC)C(=O)N(C(=O)NC(C)c2ccccc2)C1Oc1ccc(C(=O)O)cc1 (single isomer, unassigned) [Table IV: C3 H7; C3 H7; O-(4-COOHPh); drawing 47 (lower Rf isomer)] | 1446

same assay, conditions: pH 7.5, Table I; read-out: kobs/I, second order rate constant of inactivation of the enzyme

Row | Structure (SMILES) | kinact/KI [M⁻¹ s⁻¹]
18 | CC[C@H]1C(=O)N(S(=O)(=O)c2ccc(C)cc2)[C@H]1C(=O)OCC(=O)O (relative stereo) | 1550
19 | CCOC(=O)N1C(=O)[C@H](CC)[C@@H]1OCC(=O)O (relative stereo) | 796
20 | CCOC(=O)N1C(=O)[C@H](CC)[C@H]1OCC(=O)NCC(=O)O (relative stereo) | 1000
21 | CCOC(=O)N1C(=O)[C@H](CC)[C@H]1OCC(=O)O (relative stereo) | 512
22 | CCOC(=O)N1C(=O)[C@H](CC)[C@H]1OC(C)C(=O)O (relative stereo) | 346
23 | CCC[C@H]1C(=O)N(C(=O)OCC)[C@@H]1OCC(=O)O (relative stereo) | 1500

same assay, conditions: pH 7.5, Table II, (per mole per second); read-out: kobs/I, second order rate constant of inactivation of the enzyme

Row | Structure (SMILES) | kinact/KI [M⁻¹ s⁻¹]
24 | CC[C@@]1(C)C(=O)N(C(=O)NCc2ccccc2)[C@H]1Oc1ccc(C(=O)O)cc1 [(3R,4S)-1-(benzylaminocarbonyl)-3-ethyl-3-methyl-4-(4-carboxy)phenoxyazetidin-2-one] | 2000
25 | CCC1(CC)C(=O)N(C(=O)NCc2ccccc2)C1Oc1ccc(CC(N)C(=O)O)cc1 (stereo not shown) [Table II: C2 H5; C2 H5; drawing 36; CH2 Ph] | 2540
26 | CCC1(CC)C(=O)N(C(=O)NCc2ccccc2)C1Oc1ccc(C(=O)N2CCC[C@H]2C(=O)O)cc1 (stereo partly shown) [Table II: C2 H5; C2 H5; drawing 37; CH2 Ph] | 2000
27 | CCC1(CC)C(=O)N(C(=O)NCc2ccccc2)C1Oc1ccc(C(=O)NS(=O)(=O)c2ccc(Cl)cc2)cc1 (stereo not shown) [Table II: C2 H5; C2 H5; drawing 38; CH2 Ph] | 6300
28 | CCC1(CC)C(=O)N(C(=O)NCc2ccccc2)C1Oc1ccc([C@H](NC(C)=O)C(=O)O)cc1 (stereo partly shown) [Table II: C2 H5; C2 H5; drawing 39; CH2 Ph] | 2420
29 | CCC1C(=O)N(C(=O)NCc2ccccc2)C1Oc1ccc(C(=O)O)cc1 (stereo not shown) [Table II: C2 H5; H; O-(4-COOHPh); CH2 Ph] | 4000
30 | CCC1C(=O)N(C(=O)NCc2ccccc2)C1c1ccc(C(=O)O)cc1 (stereo not shown) [Table II: C2 H5; H; Ph-4-COOH; CH2 Ph] | 900
31 | CCCC1C(=O)N(C(=O)NCc2ccccc2)C1Oc1ccc(C(=O)O)cc1 (stereo not shown) [Table II: C3 H7; H; O-(4-COOHPh); CH2 Ph] | 5000
32 | COC1C(=O)N(C(=O)NCc2ccc3ccccc3c2)C1c1ccc(C(=O)O)cc1 (stereo not shown) [Table II: H; OMe; Ph-4-COOH; CH2-2-Naph] | 1340

same assay, conditions: pH 7.5, Table III, (per mole per second); read-out: kobs/I, second order rate constant of inactivation of the enzyme

Row | Structure (SMILES) | kinact/KI [M⁻¹ s⁻¹]
33 | CCC1(CC)C(=O)N(C(=O)NCc2ccccc2)C1n1cnc2ccccc21 (stereo not shown) [Table III: 1-benzimidazolyl; CH2 Ph] | 69
34 | CCC1(CC)C(=O)N(C(=O)NCc2ccc(-c3ccccc3)cc2)C1n1ccnc1 (stereo not shown) [Table III: 1-imidazole; CH2 Ph-4-Ph] | 461
35 | CCC1(CC)C(=O)N(C(=O)NCc2ccccc2)C1n1cnnn1 (stereo not shown) [Table III: 1-tetrazolyl; CH2 Ph] | 948
36 | CCC1(CC)C(=O)N(C(=O)NCc2ccc(-c3ccccc3)cc2)C1n1cncn1 (stereo not shown) [Table III: 1-triazolyl; CH2 Ph-4-Ph] | 2140
37 | CCC1(CC)C(=O)N(C(=O)NCc2ccccc2)C1n1c(=O)cc[nH]c1=O (stereo not shown) [Table III: C00042; CH2 Ph] | 351
38 | CCC1(CC)C(=O)N(C(=O)NCc2ccccc2)C1NC(=O)OC (stereo not shown) [Table III: NHCOOMe; CH2 Ph] | 496
39 | CCC1(CC)C(=O)N(C(=O)NCc2ccccc2)C1Oc1ccccc1CCCN(C)C (stereo not shown) [Table III: O-(2-(CH2)3 NMe2Ph); CH2 Ph] | 629
40 | CCC1(CC)C(=O)N(C(=O)NCc2ccccc2)C1Oc1ccc(C(NC(C)=O)C(=O)O)cc1 (stereo not shown) [Table III: O-(4-CH(COOH)NHAcPh); CH2 Ph] | 1680
41 | CCC1(CC)C(=O)N(C(=O)NCc2ccccc2O)C1Oc1ccc(C(=O)O)cc1 (stereo not shown) [Table III: O-(4-COOHPh); CH2 Ph(2-OH)] | 1460
42 | CCC1(CC)C(=O)N(C(=O)NCc2cccc(C)c2)C1Oc1ccc(C(=O)O)cc1 (stereo not shown) [Table III: O-(4-COOHPh); CH2 Ph(3-CH3)] | 6930
43 | CCC1(CC)C(=O)N(C(=O)NCc2ccc(C(C)=O)cc2)C1Oc1ccc(C(=O)O)cc1 (stereo not shown) [Table III: O-(4-COOHPh); CH2 Ph(4-COMe)] | 5920
44 | CCC1(CC)C(=O)N(C(=O)NCc2ccc(C(C)C)cc2)C1Oc1ccc(C(=O)O)cc1 (stereo not shown) [Table III: O-(4-COOHPh); CH2 Ph(4-i-Pr)] | 18800
45 | CCC1(CC)C(=O)N(C(=O)NCc2ccc(C(C)(C)C)cc2)C1Oc1ccc(C(=O)O)cc1 (stereo not shown) [Table III: O-(4-COOHPh); CH2 Ph(4-tBu)] | 21800
46 | CCC1(CC)C(=O)N(C(=O)NCC2CCC3CCCCC3C2)C1Oc1ccc(C(=O)O)cc1 (stereo not shown) [Table III: O-(4-COOHPh); drawing 41] | 4160
47 | CCC1(CC)C(=O)N(C(=O)NCc2ccc(C(=O)N3CCOCC3)cc2)C1Oc1ccc(C(=O)O)cc1 (stereo not shown) [Table III: O-(4-COOHPh); drawing 43] | 2040
48 | C=CCOC1N(C(=O)NCc2ccc(-c3ccccc3)cc2)C(=O)C1(CC)CC (stereo not shown) [Table III: O-(allyl); CH2 Ph-4-Ph] | 12500
49 | CCC1(CC)C(=O)N(C(=O)NCc2ccccc2)C1OCC(O)CO (stereo not shown) [Table III: O-glyceryl; CH2 Ph] | 818

same assay, conditions: pH 7.5, Table VI, (per mole per second); read-out: kobs/I, second order rate constant of inactivation of the enzyme

Row | Structure (SMILES) | kinact/KI [M⁻¹ s⁻¹]
50 | C=CC[C@@H](NC(=O)N1C(=O)C(CC)(CC)[C@@H]1Oc1ccc(CC(=O)O)cc1)c1ccc2c(c1)OCO2 [(4S)-3,3-diethyl-1-[(R)-α-allyl-(3,4-methylenedioxy)-benzylaminocarbonyl]-4-[(4-carboxymethyl)phenoxy]azetidin-2-one] | 605000
51 | CCC[C@@H](NC(=O)N1C(=O)C(CC)(CC)[C@@H]1Oc1ccc(CC(=O)O)cc1)c1ccc2c(c1)OCO2 [(4S)-3,3-diethyl-1-[(R)-α-n-propyl-(3,4-methylenedioxy)-benzylaminocarbonyl]-4[(4-carboxymethyl)-phenoxy]azetidin-2-one] | 867000

same assay, conditions: pH 7.5, read-out: kobs/I, second order rate constant of inactivation of the enzyme

Row | Structure (SMILES) | kinact/KI [M⁻¹ s⁻¹]
52 | CC[C@H]1C(=O)N(S(=O)(=O)c2ccc(C)cc2)[C@H]1C(=O)N(C)CC(=O)O (relative stereo) | 165
53 | CC[C@H]1C(=O)N(S(=O)(=O)c2ccc(C)cc2)[C@H]1C(=O)OCc1ccc(C(=O)O)cc1 (relative stereo) | 299
54 | CCOC(=O)[C@@H]1[C@@H](CC)C(=O)N1S(=O)(=O)c1ccc([N+](=O)[O-])cc1 (relative stereo) [4-Carboethoxy-3-ethyl-1-(p-nitrobenzenesulfonyl)-azetidin-2-one] | 39300
55 | CCOC(=O)[C@H]1[C@@H](CC)C(=O)N1S(=O)(=O)c1ccc([N+](=O)[O-])cc1 (relative stereo) [4-Carboethoxy-3-ethyl-1-(p-nitrobenzenesulfonyl)-azetidin-2-one] | 3920
56 | CC[C@H]1C(=O)N(C(C)=O)[C@H]1OC(=O)c1ccccc1 (relative stereo) [Table I: H; C2 H5 (cis); OCOPh; COCH3] | 28500
57 | CCO[C@@H]1[C@@H](CC)C(=O)N1C(C)=O (relative stereo) [Table I: H; C2 H5 (trans); OC2 H5; COCH3] | 1670
58 | CC[C@H]1C(=O)N(C(C)=O)[C@@H]1OC(=O)c1ccccc1 (relative stereo) [Table I: H; C2 H5 (trans); OCOPh; COCH3] | 81000
59 | CC[C@H]1C(=O)N(C(C)=O)[C@@H]1Oc1ccccc1 (relative stereo) [Table I: H; C2 H5 (trans); OPh; COCH3] | 5270
60 | CCC1C(=O)N(C(=O)c2ccccc2)C1C(C)=O (stereo not drawn) [Table I: H; C2 H5 (trans); COCH3; COPh] | 76600
61 | CCC1C(=O)N(C(C)=O)C1OC(C)=O (stereo not shown) [Table I: H; C2 H5; OCOCH3; COCH3] | 15100
